Data reported in patent US20240279241A1, “PYRIDO[4,3-D]PYRIMIDINE COMPOUNDS CAPABLE OF INHIBITING KRAS MUTANT PROTEINS” (Redx Pharma PLC, priority 2021, published 2024).
Like-named read-outs stand apart in the source and are kept apart here.

How the values were obtained:
Format in all cases: biochemical
KRAS G12A = biological target: T1, KRAS G12A (Homo sapiens, UniProt P01116, G12A); experiment: HTRF nucleotide exchange assay (NEA), KRAS G12A
T1 construct: 4 nM KRAS; aa1-188 containing the G12V, G12C, G12A or G12S amino acid substitution
Description: (§1) The capacity of compounds to bind KRAS G12D, other KRAS mutants and wildtype RAS isoforms was quantified using a HTRF nucleotide exchange assay. Recombinant human RAS protein (2 nM; aa1-188 KRAS WT, HRAS WT, NRAS WT, or KRAS containing the containing the G12D, G13D or Q61H amino acid substitutions, or 4 nM KRAS; aa1-188 containing the G12V, G12C, G12A or G12S amino acid substitution, an N-terminal 6×His-tag and leader sequence), and 2 nM Europium-labeled anti-6×His antibody were mixed in assay buffer (10 mM HEPES pH7.3, 150 mM NaCl, 5 mM MgCl2, 0.05% BSA, 0.0025% NP-40 and 100 mM KF) with various concentrations of compound in a 384-well plate and a volume of 5 uL. After a 60-minute incubation at room temperature, 5 ul of 200 nM EDA-GTP-DY647P1 (diluted in assay buffer) was added to the plate. Following 30-minute incubation at room temperature, time-resolved fluorescence was measured on a PerkinElmer Envision plate reader. DMSO (0.3%) and unlabeled […] (1 μM) or equivalent tool compound were used to generate the Max and Min assay signals, respectively. Data was analysed using a four-parameter logistic model to calculate IC50 values, with at least two independent replicates were performed for each compound.

KRAS G13D = biological target: T2, KRAS G13D (Homo sapiens, UniProt P01116, G13D); experiment: HTRF nucleotide exchange assay (NEA), KRAS G13D; conditions: recombinant human KRAS G13D aa1-188, 2 nM; lowest class = % inhibition at 10 μM
T2 construct: Recombinant human RAS protein (2 nM); aa1-188 KRAS WT
Description: as §1

KRAS G12C = biological target: T3, KRAS G12C (Homo sapiens, UniProt P01116, G12C); experiment: HTRF nucleotide exchange assay (NEA), KRAS G12C
T3 construct: 4 nM KRAS; aa1-188 containing the G12V, G12C, G12A or G12S amino acid substitution
Description: as §1

KRAS G12S = biological target: T4, KRAS G12S (Homo sapiens, UniProt P01116, G12S); experiment: HTRF nucleotide exchange assay (NEA), KRAS G12S
T4 construct: 4 nM KRAS; aa1-188 containing the G12V, G12C, G12A or G12S amino acid substitution
Description: as §1

KRAS WT = biological target: T5, KRAS WT (Homo sapiens, UniProt P01116); experiment: HTRF nucleotide exchange assay (NEA), KRAS WT
T5 construct: Recombinant human RAS protein (2 nM); aa1-188 KRAS WT
In short: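 Assay buffer: 10 mM HEPES pH7.3, 150 mM NaCl, 5 mM MgCl2, 100 mM KF, BSA and NP-40. KRAS aa1-188 with His tag (2 nM WT/G13D, 4 nM G12C/G12S) was exposed to compound for 60 min before the labeled GTP was added (200 nM solution). Fluorescence was read after 30 min at room temperature.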

KRAS G12V = biological target: T6, KRAS G12V (Homo sapiens, UniProt P01116, G12V); experiment: HTRF nucleotide exchange assay (NEA), KRAS G12V
T6 construct: 4 nM KRAS; aa1-188 containing the G12V, G12C, G12A or G12S amino acid substitution
Description: as §1

KRAS G12D = biological target: T7, KRAS G12D (Homo sapiens, UniProt P01116, G12D); experiment: HTRF nucleotide exchange assay (NEA), KRAS G12D; conditions: recombinant human KRAS G12D aa1-188, 2 nM; lowest class = % inhibition at 10 μM
T7 construct: Recombinant human RAS protein (2 nM)
In short: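 Compound binding to KRAS G12D was measured by HTRF nucleotide exchange. Recombinant human KRAS G12D (aa1-188, N-terminal 6×His-tag, 2 nM) and 2 nM Europium anti-6×His antibody were combined with compound in 5 uL assay buffer in 384-well plates for 60 minutes at room temperature, then 5 ul of 200 nM EDA-GTP-DY647P1 was added for 30 minutes before time-resolved fluorescence reading.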

[1] = recombinant human KRAS G12S aa1-188, 4 nM, lowest class = % inhibition at 10 μM

T4 sequence (P01116 1-188 isoform P01116-2 G12S): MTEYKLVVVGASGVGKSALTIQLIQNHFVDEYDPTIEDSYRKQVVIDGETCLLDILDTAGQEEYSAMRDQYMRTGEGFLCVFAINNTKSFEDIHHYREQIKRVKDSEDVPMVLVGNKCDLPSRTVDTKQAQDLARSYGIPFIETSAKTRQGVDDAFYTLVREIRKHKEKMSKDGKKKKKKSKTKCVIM
T2 sequence (P01116 1-188 isoform P01116-2 G13D): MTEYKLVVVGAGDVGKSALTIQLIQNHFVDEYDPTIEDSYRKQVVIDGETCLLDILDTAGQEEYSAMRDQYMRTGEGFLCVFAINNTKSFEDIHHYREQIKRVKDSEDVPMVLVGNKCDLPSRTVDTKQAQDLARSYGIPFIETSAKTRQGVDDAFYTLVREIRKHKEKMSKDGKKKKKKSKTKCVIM
T6 sequence (P01116 1-188 isoform P01116-2 G12V): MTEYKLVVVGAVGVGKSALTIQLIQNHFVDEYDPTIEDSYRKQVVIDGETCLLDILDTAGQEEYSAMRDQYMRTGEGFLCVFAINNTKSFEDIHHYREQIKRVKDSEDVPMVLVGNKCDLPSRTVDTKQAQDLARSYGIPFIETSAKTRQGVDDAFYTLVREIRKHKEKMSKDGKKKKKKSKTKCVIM
T7 sequence (P01116 1-188 isoform P01116-2 G12D): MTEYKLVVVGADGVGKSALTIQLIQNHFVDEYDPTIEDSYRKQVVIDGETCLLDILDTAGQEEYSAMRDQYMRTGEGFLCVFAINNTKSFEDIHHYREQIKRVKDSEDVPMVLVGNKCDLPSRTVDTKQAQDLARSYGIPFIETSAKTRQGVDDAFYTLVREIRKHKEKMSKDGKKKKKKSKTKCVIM
T1 sequence (P01116 1-188 isoform P01116-2 G12A): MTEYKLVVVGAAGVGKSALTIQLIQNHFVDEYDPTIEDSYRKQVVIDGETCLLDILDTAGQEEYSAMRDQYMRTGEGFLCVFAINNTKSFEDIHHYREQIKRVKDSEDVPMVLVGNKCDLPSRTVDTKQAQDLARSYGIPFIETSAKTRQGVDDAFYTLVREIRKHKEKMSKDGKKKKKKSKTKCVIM
T3 sequence (P01116 1-188 isoform P01116-2 G12C): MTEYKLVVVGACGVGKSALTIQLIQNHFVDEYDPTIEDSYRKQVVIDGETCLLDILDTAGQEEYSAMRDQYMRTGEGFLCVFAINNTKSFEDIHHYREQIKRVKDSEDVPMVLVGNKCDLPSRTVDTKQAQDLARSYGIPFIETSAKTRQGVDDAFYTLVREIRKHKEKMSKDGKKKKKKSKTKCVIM
T5 sequence (P01116 1-188 isoform P01116-2): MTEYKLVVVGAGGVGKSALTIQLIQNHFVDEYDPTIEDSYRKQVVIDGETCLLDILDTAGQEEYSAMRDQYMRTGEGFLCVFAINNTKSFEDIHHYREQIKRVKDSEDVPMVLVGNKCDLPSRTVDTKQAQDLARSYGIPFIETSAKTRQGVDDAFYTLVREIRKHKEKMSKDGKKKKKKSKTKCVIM

Structure (SMILES) | IC50 (KRAS G12A) [nM] | IC50 (KRAS G13D) [nM] | IC50 (KRAS G12C) [nM] | IC50 (KRAS G12S; [1]) [nM] | IC50 (KRAS WT) [nM] | IC50 (KRAS G12V) [nM] | IC50 (KRAS G12D) [nM] | IC50 (KRAS G12S) [nM]
Oc1cc(-c2ncc3c(N4CCOC5(CCCC5)C4)nc(OCC45CCCN4CCC5)nc3c2F)c2ccccc2c1 [Example 4, 4-[8-fluoro-2-(1,2,3,5,6,7-hexahydropyrrolizin-8-ylmethoxy)-4-(6-oxa-9-azaspiro[4.5]-decan-9-yl)pyrido[4,3-d]pyrimidin-7-yl]naphthalen-2-ol] | 100 to 10000 | > 10000 | 100 to 10000 | > 10000 | 100 to 10000 | 100 to 10000 | 100 to 10000 | –
Oc1cc(-c2ncc3c(NCC4CCOCC4)nc(OCC45CCCN4CCC5)nc3c2F)c2ccccc2c1 [Example 9, 4-[8-fluoro-2-(1,2,3,5,6,7-hexahydropyrrolizin-8-ylmethoxy)-4-(tetrahydropyran-4-ylmethylamino)pyrido[4,3-d]pyrimidin-7-yl]naphthalen-2-ol] | 100 to 10000 | > 10000 | 100 to 10000 | – | 100 to 10000 | 100 to 10000 | 100 to 10000 | 100 to 10000
O=C1CN(c2nc(OCC34CCCN3CCC4)nc3c(F)c(-c4cc(O)cc5ccccc45)ncc23)CCN1 [Example 10, 4-[8-fluoro-2-(1,2,3,5,6,7-hexahydropyrrolizin-8-ylmethoxy)-7-(3-hydroxy-1-naphthyl)pyrido[4,3-d]pyrimidin-4-yl]piperazin-2-one] | 100 to 10000 | > 10000 | 100 to 10000 | – | 100 to 10000 | 100 to 10000 | 100 to 10000 | 100 to 10000
O=C1CCN(c2nc(OCC34CCCN3CCC4)nc3c(F)c(-c4cc(O)cc5ccccc45)ncc23)CCN1 [Example 13] | 100 to 10000 | > 10000 | 100 to 10000 | – | 100 to 10000 | 100 to 10000 | 10 to 100 | 100 to 10000
O=C1CN(c2nc(OCC34CCCN3CCC4)nc3c(F)c(-c4cc(O)cc5ccccc45)ncc23)CCCN1 [Example 14, 4-[8-fluoro-2-(1,2,3,5,6,7-hexahydropyrrolizin-8-ylmethoxy)-7-(3-hydroxy-1-naphthyl)pyrido[4,3-d]pyrimidin-4-yl]-1,4-diazepan-2-one] | 100 to 10000 | > 10000 | 10 to 100 | – | 100 to 10000 | 10 to 100 | 10 to 100 | 100 to 10000
O=S1(=O)CCN(c2nc(OCC34CCCN3CCC4)nc3c(F)c(-c4cc(O)cc5ccccc45)ncc23)CC1 [Example 22, 4-[4-(1,1-dioxo-1,4-thiazinan-4-yl)-8-fluoro-2-(1,2,3,5,6,7-hexahydropyrrolizin-8-ylmethoxy)pyrido[4,3-d]pyrimidin-7-yl]naphthalen-2-ol] | 100 to 10000 | > 10000 | – | – | 100 to 10000 | – | 100 to 10000 | 100 to 10000
CSCCCN(C)c1nc(OCC23CCCN2CCC3)nc2c(F)c(-c3cc(O)cc4ccccc34)ncc12 [Example 27, 4-[8-fluoro-2-(1,2,3,5,6,7-hexahydropyrrolizin-8-ylmethoxy)-4-[methyl(3-methylsulfanylpropyl)amino]pyrido[4,3-d]pyrimidin-7-yl]naphthalen-2-ol] | 100 to 10000 | > 10000 | 100 to 10000 | – | 100 to 10000 | – | 100 to 10000 | 100 to 10000

Other lines, results leading:

IC50 (KRAS G12A) [nM] | IC50 (KRAS G13D) [nM] | IC50 (KRAS G12C) [nM] | IC50 (KRAS G12S; [1]) [nM] | IC50 (KRAS WT) [nM] | IC50 (KRAS G12V) [nM] | IC50 (KRAS G12D) [nM] | IC50 (KRAS G12S) [nM] | Structure (SMILES)
100 to 10000 | > 10000 | – | – | 100 to 10000 | – | 100 to 10000 | 100 to 10000 | COCC(C)CNc1nc(OCC23CCCN2CCC3)nc2c(F)c(-c3cc(O)cc4ccccc34)ncc12 (stereo not shown) [Example 31, 4-[8-fluoro-2-(1,2,3,5,6,7-hexahydropyrrolizin-8-ylmethoxy)-4-[(3-methoxy-2-methyl-propyl)amino]pyrido [4,3-d]pyrimidin-7-yl]naphthalen-2-ol]
100 to 10000 | > 10000 | – | – | 100 to 10000 | – | 100 to 10000 | 100 to 10000 | COC(C)CCNc1nc(OCC23CCCN2CCC3)nc2c(F)c(-c3cc(O)cc4ccccc34)ncc12 (stereo not shown) [Example 32, 4-[8-fluoro-2-(1,2,3,5,6,7-hexahydropyrrolizin-8-ylmethoxy)-4-(3-methoxybutylamino)pyrido[4,3-d]pyrimidin-7-yl]naphthalen-2-ol]
100 to 10000 | > 10000 | – | > 10000 | 100 to 10000 | – | 100 to 10000 | – | COCC1CCN(c2nc(OCC34CCCN3CCC4)nc3c(F)c(-c4cc(O)cc5ccccc45)ncc23)C1 (stereo not shown) [Example 33, 4-[8-fluoro-2-(1,2,3,5,6,7-hexahydropyrrolizin-8-ylmethoxy)-4-[3-(methoxymethyl)pyrrolidin-1-yl]pyrido [4,3-d]pyrimidin-7-yl]naphthalen-2-ol]
10 to 100 | > 10000 | 10 to 100 | – | 10 to 100 | 10 to 100 | 10 to 100 | 100 to 10000 | Oc1cc(-c2ncc3c(N4CCCCC4)nc(OCC45CCCN4CCC5)nc3c2F)c2ccccc2c1 [Example 34, 4-[8-fluoro-2-(1,2,3,5,6,7-hexahydropyrrolizin-8-ylmethoxy)-4-(1-piperidyl)pyrido[4,3-d]pyrimidin-7-yl]naphthalen-2-ol]
100 to 10000 | > 10000 | – | > 10000 | 100 to 10000 | – | 100 to 10000 | – | Oc1cc(-c2ncc3c(NC4CCCCCC4)nc(OCC45CCCN4CCC5)nc3c2F)c2ccccc2c1 [Example 36, 4-[4-(cycloheptylamino)-8-fluoro-2-(1,2,3,5,6,7-hexahydropyrrolizin-8-ylmethoxy)pyrido [4,3-d]pyrimidin-7-yl]naphthalen-2-ol]
10 to 100 | – | 10 to 100 | – | 10 to 100 | 10 to 100 | 10 to 100 | 100 to 10000 | Oc1cc(-c2ncc3c(N4CCCC5(COC5)C4)nc(OCC45CCCN4CCC5)nc3c2F)c2ccccc2c1 [Example 52, 4-[8-fluoro-2-(1,2,3,5,6,7-hexahydropyrrolizin-8-ylmethoxy)-4-(2-oxa-8-azaspiro[3.5]nonan-8-yl)pyrido[4,3-d]pyrimidin-7-yl]naphthalen-2-ol]
100 to 10000 | – | 100 to 10000 | – | 100 to 10000 | 100 to 10000 | 100 to 10000 | 100 to 10000 | O=S1(=O)CCN(c2nc(OCC34CCCN3CCC4)nc3c(F)c(-c4cc(O)cc5ccccc45)ncc23)CCN1 [Example 59, 4-[4-(1,1-dioxo-1,2,5-thiadiazepan-5-yl)-8-fluoro-2-(1,2,3,5,6,7-hexahydropyrrolizin-8-ylmethoxy)pyrido [4,3-d]pyrimidin-7-yl]naphthalen-2-ol]
10 to 100 | – | 10 to 100 | – | 100 to 10000 | 10 to 100 | 100 to 10000 | 100 to 10000 | N#CC1CCN(c2nc(OCC34CCCN3CCC4)nc3c(F)c(-c4cc(O)cc5ccccc45)ncc23)CC1 [Example 65, 1-[8-fluoro-2-(1,2,3,5,6,7-hexahydropyrrolizin-8-ylmethoxy)-7-(3-hydroxy-1-naphthyl)pyrido[4,3-d]pyrimidin-4-yl]piperidine-4-carbonitrile]
10 to 100 | – | 10 to 100 | – | 10 to 100 | 10 to 100 | ≤ 10 | 100 to 10000 | Oc1cc(-c2ncc3c(N4CCCC(O)CC4)nc(OCC45CCCN4CCC5)nc3c2F)c2ccccc2c1 (stereo not shown) [Example 70, 1-[8-fluoro-2-(1,2,3,5,6,7-hexahydropyrrolizin-8-ylmethoxy)-7-(3-hydroxy-1-naphthyl)pyrido[4,3-d]pyrimidin-4-yl]azepan-4-ol]
10 to 100 | – | 10 to 100 | – | 10 to 100 | 10 to 100 | ≤ 10 | 100 to 10000 | [O-][S+]1CCCN(c2nc(OCC34CCCN3CCC4)nc3c(F)c(-c4cc(O)cc5ccccc45)ncc23)CC1 (stereo not shown) [Example 90, 4-[8-fluoro-2-(1,2,3,5,6,7-hexahydropyrrolizin-8-ylmethoxy)-4-(1-oxo-1,4-thiazepan-4-yl)pyrido[4,3-d]pyrimidin-7-yl]naphthalen-2-ol]
